Counter-ions that a name gives are not always drawn. Like-named read-outs stand apart in the source and are kept apart here.
Assays:
[1] = Acute peroral toxicity in mice; details: mouse, in vivo, po
plaque [2] = test: Plaque-index on test persons after mouth rinsing; assay type: in vivo; details: rinsing with 10 ml of 1,1 mM solution 3 times daily for 3 days; scale 0 (no plaque) to 3 (clearly visible plaque marginally)
Method: Plaque-index on test persons after rinsing with 10 ml of 1,1 mM solution 3 times daily for 3 days. The rinsing was during this time the only type of oral hygiene used.
Plaque-index, which is a recognized measure of plaque-inhibiting property, runs from 0 (no plaque) to 3 (clearly visible plaque marginally).

Staph. aureus = test: Inhibition of growth in aqueous solution and subcultivation in liquid medium, Staph. aureus; assay type: cell-based; details: Reference: Chlorohexidine=1
From the text: (§1) Inhibition of growth in aqueous solution and subcultivation in liquid medium. Reference: Chlorohexidine=1.

Aerobacter aerogenes = test: Inhibition of growth in aqueous solution and subcultivation in liquid medium, Aerobacter aerogenes; assay type: cell-based; details: Reference: Chlorohexidine=1
From the text: as §1

human epithelial cells = test: Cytotoxic effect on human epithelial cells in vitro; assay type: cell-based
Method: Cytotoxic effect on human epithelial cells in vitro after treatment for 5 minutes at 37° C. Reference: Chlorohexidine=1.

bacteria = details: cited from earlier work
plaque [3] = test: Plaque-index on test persons after mouth rinsing; assay type: in vivo; details: rinsing with 1,6 mM chlorohexidine under the same conditions; scale 0 to 3
plaque [4] = details: rinsing of the mouth; cited from earlier work
[5] = treatment for 5 minutes at 37° C., Reference: Chlorohexidine=1

| Structure (SMILES) | LD50 [1] [mg/kg] | Plaque index (plaque [2]) | Inhibition of growth relative to chlorohexidine (Staph. aureus) | Inhibition of growth relative to chlorohexidine (Aerobacter aerogenes) | Cytotoxic effect relative to chlorohexidine (human epithelial cells) | Cytotoxic effect relative to chlorohexidine (human epithelial cells; [5]) | Toxicity compared with chlorohexidine (in words) (human epithelial cells; human epithelial cells in vitro) | Antibacterial activity (in words) (bacteria) | Plaque index (plaque [3]) | Effect against gingivitis and caries (in words) (plaque [4]) | Inhibition of plaque formation (in words) (plaque [4]) |
| --- | --- | --- | --- | --- | --- | --- | --- | --- | --- | --- | --- |
| [H]/N=C(\N/C(=N/[H])NCCCCCCNC(=N)NC(=N)Nc1ccc(Cl)cc1)Nc1ccc(Cl)cc1 [Chlorohexidine-digluconate, reference compound] | 1800 | – | – | – | – | – | – | – | – | – | – |
| CC(C)CCCC(C)NC(=N)NC(=N)NCCCCCCNC(=N)NC(=N)NC(C)CCCC(C)C (stereo not shown) [Compound 1, 1,1'-hexamethylene-bis-[5-(1,5-dimethylhexyl)biguanide]dihydrochloride] | 1690 | 0,36 | 4 | 16 | – | – | – | – | – | – | – |
| N=C(NCCCCCCNC(=N)NC(=N)N1CC2CCC(CC2)C1)NC(=N)N1CC2CCC(CC2)C1 [Compound 2] | – | 0,58 | 1 | 1 | 1/8 | – | – | – | – | – | – |
| N=C(NCCCCCCNC(=N)NC(=N)NCC1CCCCC1)NC(=N)NCC1CCCCC1 [Compound 3] | – | 0,19 | 2 | 8 | – | 1/2 | – | – | – | – | – |
| N=C(NCCCCCCNC(=N)NC(=N)NC12CC3CC(CC(C3)C1)C2)NC(=N)NC12CC3CC(CC(C3)C1)C2 [Compound 4, 1,1'-hexamethylene-bis-[5-(1-adamantyl)biguanide]dihydrochloride] | 2830 | 0,36 | 16 | 8 | – | – | – | – | – | – | – |
| N=C(NCCCCCCNC(=N)NC(=N)NC1CC2CCC1C2)NC(=N)NC1CC2CCC1C2 (stereo not shown) [Compound 5, 1,1'-hexamethylene-bis-[5-(2-endonorbornyl]biguanide)-dihydrochloride] | – | 0,50 | 1/2 | 1/8 | – | 1/8 | – | – | – | – | – |
| CCCCCC(C)NC(=N)NC(=N)NCCCCCCNC(=N)NC(=N)NC(C)CCCCC.Cl.Cl (stereo not shown) [Compound 6, 1,1'-hexamethylene-bis-[5-(1-methylhexyl)biguanide]-dihydrochloride] | – | 0,27 | 4 | 1 | – | 1 | – | – | – | – | – |
| CCC(C)CC(C)NC(=N)NC(=N)NCCCCCCNC(=N)NC(=N)NC(C)CC(C)CC (stereo not shown) [Compound 7, 1,1'-hexamethylene-bis-[5-(1,3-dimethylpenthyl)-biguanide]-dihydrochloride] | – | 0,29 | 8 | 1 | – | 1 | – | – | – | – | – |
| CC(C)CCC(C)NC(=N)NC(=N)NCCCCCCNC(=N)NC(=N)NC(C)CCC(C)C.Cl.Cl (stereo not shown) [Compound 8, 1,1'-hexamethylene-bis-[5-(1,4-dimethylpentyl)biguanide]-dihydrochloride] | – | 0,70 | 8 | 1 | – | 1 | – | – | – | – | – |
| CCCCC(CC)CNC(=N)NC(=N)NCCCCCCNC(=N)NC(=N)NCC(CC)CCCC (stereo not shown) [Compound 9, 1,1'-hexamethylene-bis-[5-(2-ethylhexyl)biguanide], reference compound] | – | 0,52 | 8 | 2 | – | 4 | much more toxic | known for having antibacterial activity | – | – | – |
| N=C(NCCCCCCNC(=N)NC(=N)Nc1ccc(Cl)cc1)NC(=N)Nc1ccc(Cl)cc1 [chlorohexidine, 1,1'-hexamethylene-bis-[5-(4-chlorophenyl)biguanide]] | – | – | – | – | – | – | – | antibacterial effect | 0,75 | prophylactic effect against gingivitis and caries | marked inhibiting effect on the formation of plaque |
